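Each compound was tested at five concentrations against cells in 96-well plates for 48 hours. Abbreviation: GI50, concentration required for 50% inhibition of growth.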 Active and inactive are the calls of the source. Cut-off read from the data, not from the text of the source: active = GI50 up to about 1.1 µM and inactive = higher.
Experiments:
Assay in all cases: inhibition of tumour cell growth, NCI panel, 48 h
786-0 = system: 786-0
A498 = system: A498
A549 = system: A549
ACHN = system: ACHN
CAKI-1 = system: CAKI-1
CCRF-CEM = system: CCRF-CEM
COLO 205 = system: COLO 205
DLD-1 = system: DLD-1
DMS-114 = system: DMS-114
DMS-273 = system: DMS-273
EKVX = system: EKVX
HCC 2998 = system: HCC 2998
HCT-116 = system: HCT-116
HCT-15 = system: HCT-15
HL-60 = system: HL-60
HOP-18 = system: HOP-18
HOP-62 = system: HOP-62
HT-29 = system: HT-29
IGROV-1 = system: IGROV-1
K562 = system: K562
KM-20L2 = system: KM-20L2
KM12 = system: KM12
LOX IMVI = system: LOX IMVI
LXFL 529 = system: LXFL 529
M14 = system: M14
M19-MEL = system: M19-MEL
MOLT-4 = system: MOLT-4
Malme-3M = system: Malme-3M
NCI-H226 = system: NCI-H226
NCI-H23 = system: NCI-H23
NCI-H460 = system: NCI-H460
NCI-H522 = system: NCI-H522
OVCAR-3 = system: OVCAR-3
OVCAR-4 = system: OVCAR-4
OVCAR-5 = system: OVCAR-5
RPMI-8226 = system: RPMI-8226
RXF 393 = system: RXF 393
SF-268 = system: SF-268
SF-295 = system: SF-295
SF-539 = system: SF-539
SK-MEL-28 = system: SK-MEL-28
SK-MEL-2 = system: SK-MEL-2
SK-MEL-5 = system: SK-MEL-5
SK-OV-3 = system: SK-OV-3
SN12C = system: SN12C
SNB-19 = system: SNB-19
SNB-75 = system: SNB-75
SNB-78 = system: SNB-78
SW-620 = system: SW-620
TK-10 = system: TK-10
U-251 = system: U-251
UACC-257 = system: UACC-257
UACC-62 = system: UACC-62
UO-31 = system: UO-31
HOP-92 = system: HOP-92
OVCAR-8 = system: OVCAR-8
SR = system: SR

## CCCCCCCCC(=O)N(C)C1C2CN3CCC(O2)C13 (stereo not drawn)
786-0
  GI50: > 100 µM (inactive)
A498
  GI50: > 100 µM (inactive)
A549
  GI50: > 100 µM (inactive)
ACHN
  GI50: > 100 µM (inactive)
CAKI-1
  GI50: 48.9 µM (inactive)
CCRF-CEM
  GI50: > 100 µM (inactive)
COLO 205
  GI50: > 100 µM (inactive)
DLD-1
  GI50: > 100 µM (inactive)
DMS-114
  GI50: > 100 µM (inactive)
DMS-273
  GI50: > 100 µM (inactive)
EKVX
  GI50: > 100 µM (inactive)
HCC 2998
  GI50: > 100 µM (inactive)
HCT-116
  GI50: > 100 µM (inactive)
HCT-15
  GI50: > 100 µM
HL-60
  GI50: > 100 µM (inactive)
HOP-18
  GI50: > 100 µM (inactive)
HOP-62
  GI50: > 100 µM (inactive)
HT-29
  GI50: > 100 µM (inactive)
IGROV-1
  GI50: > 100 µM (inactive)
K562
  GI50: > 100 µM (inactive)
KM-20L2
  GI50: > 100 µM (inactive)
KM12
  GI50: > 100 µM (inactive)
LOX IMVI
  GI50: > 100 µM (inactive)
LXFL 529
  GI50: > 100 µM (inactive)
M14
  GI50: > 100 µM (inactive)
M19-MEL
  GI50: > 100 µM (inactive)
MOLT-4
  GI50: > 100 µM (inactive)
Malme-3M
  GI50: > 100 µM (inactive)
NCI-H226
  GI50: > 100 µM (inactive)
NCI-H23
  GI50: > 100 µM (inactive)
NCI-H460
  GI50: > 100 µM (inactive)
NCI-H522
  GI50: > 100 µM (inactive)
OVCAR-3
  GI50: > 100 µM (inactive)
OVCAR-4
  GI50: > 100 µM (inactive)
OVCAR-5
  GI50: > 100 µM (inactive)
RPMI-8226
  GI50: > 100 µM (inactive)
RXF 393
  GI50: > 100 µM (inactive)
SF-268
  GI50: > 100 µM (inactive)
SF-295
  GI50: > 100 µM (inactive)
SF-539
  GI50: > 100 µM (inactive)
SK-MEL-28
  GI50: > 100 µM (inactive)
SK-MEL-2
  GI50: > 100 µM (inactive)
SK-MEL-5
  GI50: > 100 µM (inactive)
SK-OV-3
  GI50: > 100 µM (inactive)
SN12C
  GI50: > 100 µM (inactive)
SNB-19
  GI50: > 100 µM (inactive)
SNB-75
  GI50: 75.7 µM (inactive)
SNB-78
  GI50: > 100 µM (inactive)
SW-620
  GI50: > 100 µM (inactive)
TK-10
  GI50: > 100 µM (inactive)
U-251
  GI50: > 100 µM (inactive)
UACC-257
  GI50: > 100 µM (inactive)
UACC-62
  GI50: > 100 µM (inactive)
UO-31
  GI50: > 100 µM (inactive)

## Cc1cccc(NC(=O)CC2C(=O)Nc3ccccc3S2(=O)=O)c1C (stereo not drawn)
786-0
  GI50: 29 µM (inactive)
A498
  GI50: 30.3 µM (inactive)
A549
  GI50: 31.2 µM (inactive)
ACHN
  GI50: 23.2 µM (inactive)
CAKI-1
  GI50: 66.8 µM (inactive)
COLO 205
  GI50: > 100 µM (inactive)
DLD-1
  GI50: 49.7 µM (inactive)
DMS-114
  GI50: 20.3 µM (inactive)
DMS-273
  GI50: 25.8 µM (inactive)
EKVX
  GI50: > 100 µM (inactive)
HCC 2998
  GI50: 28.1 µM (inactive)
HCT-116
  GI50: 17.2 µM (inactive)
HCT-15
  GI50: 40.6 µM
HL-60
  GI50: 23.3 µM (inactive)
HOP-18
  GI50: 22.1 µM (inactive)
HOP-62
  GI50: 22.6 µM (inactive)
HOP-92
  GI50: 19.1 µM (inactive)
HT-29
  GI50: 33.2 µM (inactive)
IGROV-1
  GI50: 26.1 µM (inactive)
K562
  GI50: 9.18 µM (inactive)
KM-20L2
  GI50: 39.4 µM (inactive)
KM12
  GI50: 30.8 µM (inactive)
LXFL 529
  GI50: 36.9 µM (inactive)
M14
  GI50: 25.4 µM (inactive)
M19-MEL
  GI50: 32.5 µM (inactive)
MOLT-4
  GI50: 47.9 µM (inactive)
Malme-3M
  GI50: 22.9 µM (inactive)
NCI-H226
  GI50: 25 µM (inactive)
NCI-H23
  GI50: 16.7 µM (inactive)
NCI-H460
  GI50: 22.6 µM (inactive)
NCI-H522
  GI50: 16.6 µM (inactive)
OVCAR-3
  GI50: 21.7 µM (inactive)
OVCAR-4
  GI50: 16.5 µM (inactive)
OVCAR-5
  GI50: > 100 µM (inactive)
OVCAR-8
  GI50: 20.2 µM (inactive)
RXF 393
  GI50: 17.9 µM (inactive)
SF-268
  GI50: 33.2 µM (inactive)
SF-295
  GI50: 58.1 µM (inactive)
SF-539
  GI50: 19.8 µM (inactive)
SK-MEL-28
  GI50: 77.6 µM (inactive)
SK-MEL-2
  GI50: 23.4 µM (inactive)
SK-MEL-5
  GI50: 28.6 µM (inactive)
SK-OV-3
  GI50: 21.9 µM (inactive)
SN12C
  GI50: 97.5 µM (inactive)
SNB-19
  GI50: 32.1 µM (inactive)
SNB-75
  GI50: 16.9 µM (inactive)
SNB-78
  GI50: 26.1 µM (inactive)
SR
  GI50: 11.1 µM (inactive)
SW-620
  GI50: 28.2 µM (inactive)
TK-10
  GI50: 28.9 µM (inactive)
U-251
  GI50: 27 µM (inactive)
UACC-257
  GI50: 26.9 µM (inactive)
UACC-62
  GI50: 18.6 µM (inactive)
UO-31
  GI50: 20.9 µM (inactive)

— ChEMBL document CHEMBL1201862, “PubChem BioAssay data set” (2004)
